“Also recorded” adds a separate entry of the source. Like-named read-outs stand apart in the source and are kept apart here. No end group written: not given here.
Legend:
neutrophils = settings: cited from earlier work
substance P receptor = substance P receptor (Homo sapiens, UniProt P25103); settings: cited from earlier work
SEC receptor [1] = settings: cited from earlier work
PC12 cells [2] = assay: Inhibition of amyloid-β 25-35 neurotoxicity (MTT assay) in PC12 cells; format: cell-based; settings: FIG. 3 and 4
Description: (§1) The MTT assay (19) was used to monitor the neurotoxicity of amyloid-β peptide. […] Inhibition of MTT reduction is a specific, early indicator of amyloid-β-mediated cytotoxicity. The PC12 cell line was used because it is the most well characterized cell line of neuronal origin and because previous studies have shown there is abundant expression of SEC receptor in this cell line. Using ^125 I peptide 105Y there is specific, saturable binding.
First, the effect of amyloid-β 25-35 on MTT reduction in PC12 cells was examined (FIG. 1). PC12 cells were incubated for six (6) hours at 37° C. with amyloid-β 25-35 in several different concentrations as shown on the horizontal axis. MTT was added and the cells incubated at 37° C. for another two (2) hours. Cell extraction buffer was added and the incubation continued at 37° C. overnight. […] Results were reported as percent control response as determined by the difference between control cells and cells lysed prior to incubation with MTT. […]
(§2) In the MTT assay used herein, inhibition of cellular redox activity is measured by 3- 4,5-dimethylthiazol-2-yl!-2,5-diphenyltetrazolium bromide (MTT) by conventional procedures as described by Hansen et al. (19).

PC12 cells [3] = assay: MTT assay of neurotoxicity in PC12 cells; format: cell-based; settings: for effect on MTT reduction: FIG. 1 and 2
Protocol: as §1, with “line.” for “line. Using ^125 I peptide 105Y there is specific, saturable binding.”
First, the effect of amyloid-β 25-35 on MTT reduction in PC12 cells was examined (FIG. 1). PC12 cells were incubated for six (6) hours at 37° C. with amyloid-β 25-35 in several different concentrations as shown on the horizontal axis. MTT was added and the cells incubated at 37° C. for another two (2) hours. Cell extraction buffer was added and the incubation continued at 37° C. overnight. Cell extracts were then subjected to spectro-photometric analysis at 570 nm.
Second, the specificity of the effect of amyloid-β 25-35 on MTT reduction in PC12 cells was examined (FIG. 2).
as §2

SEC receptor [4] = assay: Competition for binding to the SEC receptor
neurons = settings: cited from earlier work

substance P receptor, sequence (P25103 whole entry, species assumed): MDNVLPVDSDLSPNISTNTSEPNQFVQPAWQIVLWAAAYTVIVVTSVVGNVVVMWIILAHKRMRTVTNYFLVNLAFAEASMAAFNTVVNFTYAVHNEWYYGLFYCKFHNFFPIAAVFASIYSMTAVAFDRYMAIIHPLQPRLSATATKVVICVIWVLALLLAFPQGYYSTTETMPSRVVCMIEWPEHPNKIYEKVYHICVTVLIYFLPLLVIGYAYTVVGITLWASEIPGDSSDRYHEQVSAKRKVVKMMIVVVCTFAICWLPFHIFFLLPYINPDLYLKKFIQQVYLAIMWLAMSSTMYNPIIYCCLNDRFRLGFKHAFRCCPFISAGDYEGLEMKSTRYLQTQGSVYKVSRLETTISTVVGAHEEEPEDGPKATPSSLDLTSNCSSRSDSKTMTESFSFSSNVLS

Molecule: amyloid-β
- neutrophil chemotactic effect (neutrophils): neutrophil chemotactic effects
- binding to / recognition by the substance P receptor (substance P receptor): does not recognize
- binding to / recognition by the substance P receptor (substance P receptor; listed as Amyloid-β): do not bind to the substance P receptor
- binding to / recognition by the SEC receptor (SEC receptor [1]): bind to the SEC receptor

Molecule: neurokinin B
- binding to / recognition by the SEC receptor (SEC receptor [1]): approximately similar affinities

Molecule: native α1-AT: native α1-antitrypsin, negative control
- inhibition of the effect of amyloid-β 25-35 (neurotoxicity) (PC12 cells [2]): does not

Molecule: amyloid-β 1-40: region of the amyloid-β protein
- effect on MTT reduction (PC12 cells [3]): effect similar to that of amyloid-β 25-35

Molecule: amyloid-β 1-28: region of the amyloid-β protein
- effect on MTT reduction (PC12 cells [3]): no effect

Molecule: α1 -AT-elastase complexes: complexes of α1-antitrypsin with elastase which compete for binding to the SEC receptor
- inhibition of the effect of amyloid-β 25-35 (neurotoxicity) (PC12 cells [2]): inhibit the effect of amyloid-β 25-35
- competition for binding to the SEC receptor (SEC receptor [4]): compete for binding to the SEC receptor

Molecule: substance P
- desensitization of the SEC receptor on neutrophils to chemotactic effects of amyloid-β (neutrophils): elicited homologous desensitization
- neutrophil chemotactic effect (neutrophils): neutrophil chemotactic effects
- blocking of amyloid-β 25-35 effects on neurons (neurons): blocked
- binding to / recognition by the SEC receptor (SEC receptor [1]): bind to the SEC receptor; also recorded: approximately similar affinities

Molecule: IAGRSLNPNRVTLRYNKPFILVLFETPGNSLVFLGRISNPATK [PB145]
- neurotoxic activity of the peptide by itself (PC12 cells [3]; peptide alone): did not have any neurotoxic activity by itself

Molecule: substance K
- binding to / recognition by the SEC receptor (SEC receptor [1]): approximately similar affinities

Molecule: CSCC[C@H](NC(=O)[C@H](CC(C)C)NC(=O)[C@H](Cc1cnc[nH]1)NC(=O)CNC(=O)[C@@H](NC(=O)[C@H](C)NC(=O)[C@H](Cc1c[nH]c2ccccc12)NC(=O)[C@H](CCC(N)=O)NC(=O)[C@H](CC(N)=O)NC(=O)CNC(=O)[C@H](CC(C)C)NC(=O)[C@H](CCCN=C(N)N)NC(=O)[C@H](CCC(N)=O)NC(=O)[C@@H]1CCC(=O)N1)C(C)C)C(N)=O [bombesin]
- binding to / recognition by the substance P receptor (substance P receptor): does not recognize
